The subject of one data set is P388 murine leukemia. As to the kind of experiment: In vivo P388 murine leukemia model, ip implant / ip treatment. The arrangement: species or system murine (CDF1 female mice). The note with it: for median survival time: untreated controls 10 days. As to the method:
(§1) BMY-42448 was also tested in vivo in the P388 murine leukemia model. When 1×10^6 leukemia cells are implanted ip into CDF1 female mice, the median survival time for untreated controls was 10 days. […] Mice treated with 45 or 15 mg/kg BMY-42448 on the same schedule had median survival time of 13.5 and 13 days, respectively. Each drug treatment group consisted of 4 mice. The positive control reference drug, olivomycin A, was dosed at 0.4 and 0.2 mg/kg once a day for 5 days beginning one day after implant, with median survival times of 16.5 and 16 days, respectively. Both drugs were administered via the intraperitoneal route. Thus, BMY-42448 was active in the ip/ip P388 model with a maximum tolerated dose of 45 mg/kg.

Experiment in data set [1]: as above
To be noted: mouse, p388 leukemia model; ip once a day for 5 days; read-out: maximum tolerated dose. Details: species or system murine (CDF1 female mice). How it is done: as §1

A further data set has as its system B-16 melanoma. As to the kind of experiment: In vitro cytotoxicity, crystal violet staining. The data set is classed as cell-based, murine. To be noted: for IC50: Mus musculus, B16, 72 h, B-16 melanoma, 3 days with drug. How it is done:
(§2) A 150 μl aliquot of culture media containing 3750 cells was plated into each well of a 96 well microtiter plate on day 0 and allowed to attach by incubation for 24 hours at 37° C. in a 5% carbon dioxide atmosphere. Drugs were then added to the top row of the wells and serially diluted down the plate (except for the untreated control column on each plate). The cells and drug were incubated together as above for 3 days. Following incubation, dead unattached cells and media were removed by inverting the plate. Cells that are undamaged by the drug remain attached to the plate. […] The fixing solution was removed by inverting the plate and the plates were air-dried.

The test system of a further data set is P388 tumor. The data set is described as follows: iv-implanted P388 tumor model. The class given is in vivo, murine (CDF1 female mice). As to the method: BMY-42448 was tested in an iv-implanted P388 tumor model. In this model 1×10^6 cells are implanted intravenously in CDF1 female mice. […] Mitomycin C given iv once at 3.2 mg/kg on the day after tumor implant extended median survival to 12 days after tumor implant. BMY-42448 was toxic when administered iv at 10 mg/kg every other day for 3 doses beginning one day after tumor implant.

The next data set has as its system HCT-116 colon. The data set is described as follows: In vitro cytotoxicity, crystal violet staining. The data set is classed as cell-based, human. To be noted: for IC50: Homo sapiens, 72 h, HCT-116 colon, 3 days with drug. As to the method:
as §2

In brackets after ≈: the same amount, converted by molar mass.

Usually IC50 stands for the concentration that inhibits the measured activity by half. A high value points to weaker potency. With `CCC1CC23OC(=O)C(=C2O)C(=O)C2(CC)C(C=CC4C(OC5CC(O)C(NC(=O)c6[nH]c(Cl)cc6Cl)C(C)O5)C(C)CCC42)CC=CCC=CC3(C)C=C1C(=O)O` (stereo not shown) [BMY-42448], the median survival time is 13 days in the data set with P388 murine leukemia (15 mg/kg ip once a day for 5 days) and 13.5 days in the data set with P388 murine leukemia (45 mg/kg ip once a day for 5 days). Moreover, in the data set on P388 murine leukemia (135 mg/kg ip once a day for 5 days beginning 1 day after tumor implant), the “outcome (drug toxicity)” value was “died of drug toxicity”. Besides, the “activity in the ip/ip P388 model” value with P388 murine leukemia (ip implant, ip treatment) is reported as “active”. Further, in data set [1], the MTD turned out to be 45 mg/kg. Also, the IC50 was determined as 16 µg/mL (≈ 19 µM) in the data set with B-16 melanoma and 0.25 µg/mL (≈ 0.297 µM) in the data set with HCT-116 colon. Moreover, in the data set with B-16 melanoma (compared with cisplatin), the “activity on the B-16 melanoma cell line compared with reference drug” value is “equal to that of cisplatin”. For the same compound, the median life span in the data set on P388 tumor (1.25 mg/kg iv every other day for 3 doses, untreated control 8 days) came to 8 days; with P388 tumor (2.5 mg/kg iv every other day for 3 doses, untreated control 8 days), 8 days; with P388 tumor (5 mg/kg iv every other day for 3 doses, untreated control 8 days), 8 days. Moreover, the toxicity result with P388 tumor (10 mg/kg iv every other day for 3 doses beginning one day after tumor implant) was “toxic”. Moreover, the “activity in iv-implanted P388 model” value with P388 tumor (5, 2.5 or 1.25 mg/kg iv every other day for 3 doses) was “inactive”. Also, the “activity on the HCT-116 colon cancer line compared with reference drug” value in the data set on HCT-116 colon (compared with mitomycin C) is listed as “equivalent to that of mitomycin C”.

On to `CO[C@@]12[C@H](COC(N)=O)C3=C(C(=O)C(C)=C(N)C3=O)N1C[C@@H]1N[C@@H]12` [Mitomycin C, reference compound], for which the IC50 in the data set with B-16 melanoma came out at 0.98 µg/mL (≈ 2.93 µM); with HCT-116 colon, 0.25 µg/mL (≈ 0.748 µM). The compound further gave a median survival in the data set with P388 tumor (3.2 mg/kg iv once on the day after tumor implant, untreated control 8 days) of 12 days.

For olivomycin A [reference compound], the values for the median survival time with P388 murine leukemia (0.2 mg/kg ip once a day for 5 days) and with P388 murine leukemia (0.4 mg/kg ip once a day for 5 days) were 16 days and 16.5 days, respectively.
